Values after ≈ are worked out from the molar mass of the structure shown. Read-outs that look alike come from different tables or passages of the source.
Tests used:
[1] = test system: S. pneumoniae ATCC 49619 (CLSI QC strain); assay: Minimum inhibitory concentration (MIC), broth microdilution, QC strain; type: cell-based, Streptococcus pneumoniae; conditions: MIC in duplicates
Experimental: (§1) Protocols for Determining Minimum Inhibitory Concentration (MIC) of Test Compounds Against Streptococcus Pneumoniae Strains
(§2) The test strains are revived from frozen stock on blood agar plates and incubated at 35±2° C. for 18-20 hours in 5% CO2. Colonies are directly suspended from an overnight grown agar culture in CAMHB/saline and optical density adjusted to 0.5 McFarland turbidity standard (1-2×10^8 cfu/mL). Adjusted cultures are further diluted 1:100 using CAMHB such that after inoculation each well finally contains ˜5×10^5 cfu/mL. For broth dilution testing of Streptococcus species, CAMHB is supplemented with 2.5-5% v/v LHB. Colony counts of inoculum suspension is estimated by ten-fold serial dilutions and plating each dilution on agar plate. After incubation, the plates are observed for growth and microbial counts determined.
(§3) Compounds are weighed and dissolved in water/DMSO/other solvent to yield 1 mg/mL stock solution. Serial two-fold dilutions of the test compounds and reference antibiotics are prepared. 50 μL of the diluted drug solutions are dispensed in wells of microtiter trays (96 well).
(§4) To each of the wells of the microtiter tray, 50 μL of the diluted organism are inoculated to obtain a final inoculum density of ˜5×10^5 cfu/mL. Broth control, compound control and organism control wells are set up.
(§5) MIC testing are done in duplicates
(§6) MIC is defined as the lowest concentration of an antimicrobial agent that prevents visible growth of a microorganism in broth dilution susceptibility test.
(§7) After incubation period, growth of organism in the wells are detected by unaided eye facilitated by a viewing device. The amount of growth in the drug-containing wells are compared with the amount of growth in the organism-control wells.

[2] = test system: S. pneumoniae AUCC479, macrolide & penicillin sensitive; assay: Minimum inhibitory concentration (MIC), broth microdilution, AUCC479; type: cell-based, Streptococcus pneumoniae
Experimental: as §1, §2, §3, §4, §5, §6, §7

[3] = test system: S. pneumoniae AUCC488, macrolide & penicillin resistant; assay: Minimum inhibitory concentration (MIC), broth microdilution, AUCC488; type: cell-based, Streptococcus pneumoniae
Experimental: as §1, §2, §3, §4, §5, §6, §7

[4] = test system: S. pneumoniae AUCC489, macrolide & penicillin resistant; assay: Minimum inhibitory concentration (MIC), broth microdilution, AUCC489; type: cell-based, Streptococcus pneumoniae
Experimental: as §1, §2, §3, §4, §5, §6, §7

[5] = test system: S. pneumoniae AUCC483, macrolide resistant & penicillin sensitive; assay: Minimum inhibitory concentration (MIC), broth microdilution, AUCC483; type: cell-based, Streptococcus pneumoniae
Experimental: as §1, §2, §3, §4, §5, §6, §7

[6] = Oral bioavailability and tissue distribution after a single oral treatment; type: in vivo
[7] = test system: macrolide-resistant S. pneumoniae strains; assay: Mouse lung infection models; type: in vivo
CYP3A4 [8] = molecular target: T1, CYP3A4 (Homo sapiens, UniProt P08684); assay: Cytochrome P4503A4 inhibition assay, human liver microsomes, LC-MS/MS probe substrate method; conditions: for IC50: human liver microsomes 0.1 mg/mL, 10 min; for CYP3A4 inhibition in comparison with solithromycin and ketoconazole: summary of Table 1
Experimental: Cytochrome P4503A4 Inhibition Assay for Determining IC50
The potential of the compound to inhibit CYP 3A4 was tested by the LC-MS/MS based probe substrate method using human liver microsomes. Midazolam or testosterone, which are metabolized to hydroxymidazolam or hydroxytestosterone by CYP 3A4, were the probe substrates used. […] NADPH was added as the cofactor. […] After incubation for ten minutes, the amount of 1-hydroxymidazolam or 6β-hydroxyltestosterone formed was determined by LC-MS/MS method as a measure of enzyme activity. Percent inhibition of enzyme activity was calculated based on the amount of metabolites (1-hydroxymidazolam or 6β-hydroxyltestosterone) formed for each sample relative to the basal control and plotted in a curve versus the compound concentration to obtain the IC50.

CYP3A = conditions: in vitro, cited from earlier work
CYP3A4 [9] = molecular target: T1, CYP3A4; conditions: background statement; cited from earlier work
[10] = read-out: IC50 CYP3A4 (midazolam), 5 μM midazolam
[11] = read-out: IC50 CYP3A4 (testosterone), 50 μM testosterone

T1 sequence (P08684 whole entry): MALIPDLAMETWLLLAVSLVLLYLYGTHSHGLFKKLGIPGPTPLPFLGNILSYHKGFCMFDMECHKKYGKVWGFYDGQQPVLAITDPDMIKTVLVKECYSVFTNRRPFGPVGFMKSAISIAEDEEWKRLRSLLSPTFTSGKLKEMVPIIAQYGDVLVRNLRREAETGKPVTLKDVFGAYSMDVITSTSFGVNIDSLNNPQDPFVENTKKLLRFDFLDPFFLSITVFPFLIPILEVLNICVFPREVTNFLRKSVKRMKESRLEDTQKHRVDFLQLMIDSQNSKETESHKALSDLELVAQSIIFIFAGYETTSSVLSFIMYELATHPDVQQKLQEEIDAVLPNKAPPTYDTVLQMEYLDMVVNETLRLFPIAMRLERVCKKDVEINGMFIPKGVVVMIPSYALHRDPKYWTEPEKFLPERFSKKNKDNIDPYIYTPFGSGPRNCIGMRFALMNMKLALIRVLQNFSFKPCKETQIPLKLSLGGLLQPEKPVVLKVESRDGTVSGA

Compound: (3aS,4R,7R,9R,10R,11R,13R,15R,15aR)-10-{[(2S,3R,4S,6R)-4-(dimethylamino)3-hydroxy-6-methyloxan-2-yl]oxy}-1-[3-(dimethylamino)propyl]-4-ethyl-3a,7,9,11,13,15-hexamethyl-11-{[(2E)-3-(quinolin-3-yl)prop-2-en-1-yl]oxy}tetradecahydro-1H-oxacyclotetradeca[4,3-d][1,3]oxazole-2,6,8,14-tetrone [Compound 13B]
- MIC Strep. Pneumoniae ATCC49619 QC strain [1]: 0.015 to 0.03 µg/mL
- MIC Strep. Pneumoniae AUCC 479 penS, macS [2]: 0.008 to 0.015 µg/mL
- MIC Strep. Pneumoniae AUCC 488 penR, macR M or iMLS [3]: 0.12 to 0.25 µg/mL
- MIC Strep. Pneumoniae AUCC 489 penR, macR cMLS [4]: 0.12 to 0.25 µg/mL
- MIC Strep. Pneumoniae AUCC 483 penS, macR cMLS [5]: 0.12 to 0.25 µg/mL
- time drug level in the lungs remained elevated ([6]; lungs, after a single oral treatment): at least 8 hours
- oral bioavailability ([6]; oral): excellent
- tissue distribution ([6]; oral): excellent
- efficacy in mouse lung infection models [7]: demonstrated efficacy
- IC50 (CYP3A4 [8]; [10]): 6.4 µM
- CYP3A4 inhibition in comparison with solithromycin and ketoconazole (CYP3A4 [8]): lower IC50 inhibition of CYP3A4 inhibition

Compound: CC[C@H]1OC(=O)[C@H](C)C(=O)[C@H](C)[C@@H](O[C@@H]2O[C@H](C)C[C@H](N(C)C)[C@H]2O)[C@](C)(OC/C=C/c2cnc3ccccc3c2)C[C@@H](C)C(=O)[C@H](C)[C@H]2NC(=O)O[C@@]21C [cethromycin]
- IC50 (CYP3A; Katz et al / FDA briefing document, read-out: IC50 of CYP3A-dependent nifedipine oxidation): 0.63 µM
- IC50 of CYP3A-dependent nifedipine oxidation (CYP3A; same value in ng/mL): 0.4825 µg/mL
- inhibition of CYP3A4 (CYP3A4 [9]): strong inhibition

Compound: (3aS,4R,7R,9R,10R,11R,13R,15R,15aR)-10-{[(2S,3R,4S,6R)-4-(dimethylamino)-3-hydroxy-6-methyloxan-2-yl]oxy}-4-ethyl-1-{[(2R)-1-ethylpyrrolidin-2-yl]methyl}-3a,7,9,11,13,15-hexamethyl-11-{[(2E)-3-(quinolin-3-yl)prop-2-en-1-yl]oxy}-tetradecahydro-1H-oxacyclotetradeca[4,3-d][1,3]oxazole-2,6,8,14-tetrone [Compound 13D]
- MIC Strep. Pneumoniae ATCC49619 QC strain [1]: 0.03 to 0.06 µg/mL
- MIC Strep. Pneumoniae AUCC 479 penS, macS [2]: 0.015 to 0.03 µg/mL
- MIC Strep. Pneumoniae AUCC 488 penR, macR M or iMLS [3]: 0.25 to 0.5 µg/mL
- MIC Strep. Pneumoniae AUCC 489 penR, macR cMLS [4]: 0.12 to 0.25 µg/mL
- MIC Strep. Pneumoniae AUCC 483 penS, macR cMLS [5]: 0.25 to 0.5 µg/mL
- IC50 (CYP3A4 [8]; [10]): 2.9 µM
- CYP3A4 inhibition in comparison with solithromycin and ketoconazole (CYP3A4 [8]): lower IC50 inhibition of CYP3A4 inhibition

Compound: (3aS,4R,7R,9R,10R,11R,13R,15R,15aR)-10-{[(2S,3R,4S,6R)-4-(dimethylamino)-3-hydroxy-6-methyloxan-2-yl]oxy}-1-[2-(dimethylamino)ethyl]-4-ethyl-3a,7,9,11,13,15-hexamethyl-11-{[(2E)-3-(quinolin-3-yl)prop-2-en-1-yl]oxy}-tetradecahydro-1H-oxacyclotetradeca[4,3-d][1,3]oxazole-2,6,8,14-tetrone [Compound 13F, reference compound]
- MIC Strep. Pneumoniae ATCC49619 QC strain [1]: 0.015 to 0.06 µg/mL
- MIC Strep. Pneumoniae AUCC 479 penS, macS [2]: 0.0015 µg/mL
- MIC Strep. Pneumoniae AUCC 488 penR, macR M or iMLS [3]: 0.25 µg/mL
- MIC Strep. Pneumoniae AUCC 489 penR, macR cMLS [4]: 0.12 to 0.25 µg/mL
- MIC Strep. Pneumoniae AUCC 483 penS, macR cMLS [5]: 0.25 to 0.5 µg/mL
- IC50 (CYP3A4 [8]; [10]): 1.1 µM

Compound: CC[C@H]1OC(=O)[C@H](C)C(=O)[C@H](C)[C@@H](O[C@@H]2O[C@H](C)C[C@H](N(C)C)[C@H]2O)[C@](C)(OC/C=C/c2cnc3ccccc3c2)C[C@@H](C)C(=O)[C@H](C)[C@H]2N(CC3CCN(C)CC3)C(=O)O[C@]12C [Compound 13L, (3aS,4R,7R,9R,10R,11R,13R,15R,15aR)-10-{[(2S,3R,4S,6R)-4-(dimethylamino)-3-hydroxy-6-methyloxan-2-yl]oxy}-4-ethyl-3a,7,9,11,13,15-hexamethyl-1-[(1-methylpiperidin-4-yl)methyl]-11-{[(2E)-3-(quinolin-3-yl)prop-2-en-1-yl]oxy}-tetradecahydro-1H-oxacyclotetradeca[4,3-d][1,3]oxazole-2,6,8,14-tetrone]
- MIC Strep. Pneumoniae ATCC49619 QC strain [1]: 0.06 µg/mL (≈ 0.0684 µM)
- MIC Strep. Pneumoniae AUCC 479 penS, macS [2]: 0.03 µg/mL (≈ 0.0342 µM)
- MIC Strep. Pneumoniae AUCC 488 penR, macR M or iMLS [3]: 0.5 to 1 µg/mL
- MIC Strep. Pneumoniae AUCC 489 penR, macR cMLS [4]: 0.5 to 1 µg/mL
- MIC Strep. Pneumoniae AUCC 483 penS, macR cMLS [5]: 0.5 to 1 µg/mL
- IC50 (CYP3A4 [8]; [10]): 6.3 µM
- CYP3A4 inhibition in comparison with solithromycin and ketoconazole (CYP3A4 [8]): lower IC50 inhibition of CYP3A4 inhibition

Compound: (3aS,4R,7R,9R,10R,11R,13R,15R,15aR)-10-{[(2S,3R,4S,6R)-4-(dimethylamino)-3-hydroxy-6-methyloxan-2-yl]oxy}-4-ethyl-1-{2-[ethyl(methyl)amino]ethyl}-3a,7,9,11,13,15-hexamethyl-11-{[(2E)-3-(quinolin-3-yl)prop-2-en-1-yl]oxy}-tetradecahydro-1H-oxacyclotetradeca[4,3-d][1,3]oxazole-2,6,8,14-tetrone [Compound 13G]
- MIC Strep. Pneumoniae ATCC49619 QC strain [1]: 0.12 to 0.25 µg/mL
- MIC Strep. Pneumoniae AUCC 479 penS, macS [2]: 0.03 to 0.06 µg/mL
- MIC Strep. Pneumoniae AUCC 488 penR, macR M or iMLS [3]: 0.5 to 1 µg/mL
- MIC Strep. Pneumoniae AUCC 489 penR, macR cMLS [4]: 0.5 to 1 µg/mL
- MIC Strep. Pneumoniae AUCC 483 penS, macR cMLS [5]: 1 to 2 µg/mL
- IC50 (CYP3A4 [8]; [10]): 8.8 µM
- CYP3A4 inhibition in comparison with solithromycin and ketoconazole (CYP3A4 [8]): lower IC50 inhibition of CYP3A4 inhibition

Compound: (3aS,4R,7R,9R,10R,11R,13R,15R,15aR)-1-[2-(diethylamino)ethyl]-10{[(2S,3R,4S,6R)-4-(dimethylamino)-3-hydroxy-6-methyloxan-2-yl]oxy}-4-ethyl-3a,7,9,11,13,15-hexamethyl-11-{[(2E)-3-(quinolin-3-yl)prop-2-en-1-yl]oxy}-tetradecahydro-1H-oxacyclotetradeca[4,3-d][1,3]oxazole-2,6,8,14-tetrone [Compound 13A]
- MIC Strep. Pneumoniae ATCC49619 QC strain [1]: 0.015 to 0.06 µg/mL
- MIC Strep. Pneumoniae AUCC 479 penS, macS [2]: 0.008 to 0.015 µg/mL
- MIC Strep. Pneumoniae AUCC 488 penR, macR M or iMLS [3]: 0.12 to 0.25 µg/mL
- MIC Strep. Pneumoniae AUCC 489 penR, macR cMLS [4]: 0.12 to 0.25 µg/mL
- MIC Strep. Pneumoniae AUCC 483 penS, macR cMLS [5]: 0.12 to 0.25 µg/mL
- IC50 (CYP3A4 [8]; [10]): 1.2 µM
- CYP3A4 inhibition in comparison with solithromycin and ketoconazole (CYP3A4 [8]): lower IC50 inhibition of CYP3A4 inhibition

Compound: (3aS,4R,7R,9R,10R,11R,13R,15R,15aR)-10-{[(2S,3R,4S,6R)-4-(dimethylamino)-3-hydroxy-6-methyloxan-2-yl]oxy}-4-ethyl-3a,7,9,11,13,15-hexamethyl-1-{2-[(2S)-1-methylpyrrolidin-2-yl]ethyl}-11-{[(2E)-3-(quinolin-3-yl)prop-2-en-1-yl]oxy}-tetradecahydro-1H-oxacyclotetradeca[4,3-d][1,3]oxazole-2,6,8,14-tetrone [Compound 13Q]
- MIC Strep. Pneumoniae ATCC49619 QC strain [1]: 0.03 to 0.06 µg/mL
- MIC Strep. Pneumoniae AUCC 479 penS, macS [2]: 0.015 to 0.03 µg/mL
- MIC Strep. Pneumoniae AUCC 488 penR, macR M or iMLS [3]: 0.5 to 1 µg/mL
- MIC Strep. Pneumoniae AUCC 489 penR, macR cMLS [4]: 0.12 to 0.25 µg/mL
- MIC Strep. Pneumoniae AUCC 483 penS, macR cMLS [5]: 0.12 to 0.25 µg/mL
- IC50 (CYP3A4 [8]; [11]): 4.8 µM
- CYP3A4 inhibition in comparison with solithromycin and ketoconazole (CYP3A4 [8]): lower IC50 inhibition of CYP3A4 inhibition

Compound: (3aS,4R,7R,9R,10R,11R,13R,15R,15aR)-1-[3-(azetidin-1-yl)propyl]-10-{[(2S,3R,4S,6R)-4-(dimethylamino)-3-hydroxy-6-methyloxan-2-yl]oxy}-4-ethyl-3a,7,9,11,13,15-hexamethyl-11-{[(2E)-3-(quinolin-3-yl)prop-2-en-1-yl]oxy}-tetradecahydro-1H-oxacyclotetradeca[4,3-d][1,3]oxazole-2,6,8,14-tetrone [Compound 13M]
- MIC Strep. Pneumoniae ATCC49619 QC strain [1]: 0.03 to 0.06 µg/mL
- MIC Strep. Pneumoniae AUCC 479 penS, macS [2]: 0.015 to 0.03 µg/mL
- MIC Strep. Pneumoniae AUCC 488 penR, macR M or iMLS [3]: 0.5 to 1 µg/mL
- MIC Strep. Pneumoniae AUCC 489 penR, macR cMLS [4]: 0.25 to 0.5 µg/mL
- MIC Strep. Pneumoniae AUCC 483 penS, macR cMLS [5]: 0.25 to 0.5 µg/mL
- IC50 (CYP3A4 [8]; [11]): 10.3 µM
- CYP3A4 inhibition in comparison with solithromycin and ketoconazole (CYP3A4 [8]): lower IC50 inhibition of CYP3A4 inhibition
